Test results reported in patent US11970515B1, “Crystal form of Brassinosteroid (BR) analogue, and preparation method and use thereof” (CHENGDU NEWSUN CROP SCIENCE CO., LTD., priority 2021, dated 2024).

Legend:
Solubility in ethanol = type: physicochemical; conditions: different temperatures
Method: (§1) 2. Solubility Research • (1) 50 mg of the crystal form I and crystal form II were separately added to a test tube, slowly added with ethanol dropwise at different temperatures while conducting vibration until completely dissolved. Weighing was conducted and a total mass was recorded, converted into volume, expressed as mg/mL. The experimental results were shown in FIG. 11 and FIG. 12. • (2) 50 mg of the crystal form I and crystal form II were separately added to a test tube, slowly added with water dropwise at different temperatures while conducting vibration until completely dissolved. Weighing was conducted and a total mass was recorded, converted into volume, expressed as mg/mL.

Solubility in water = type: physicochemical; conditions: different temperatures
Method: as §1

corn seeds = assay: Immersing corn seeds to promote germination and growth of corn; type: in vivo; conditions: for Bud vigor index / Root vigor index / Germination rate (%): 7th day; for Germination rate (%): seeds immersed 24 h
Method: The example of the present disclosure provided use of the novel crystal form I and the novel crystal form II in promoting plant growth, specifically an experiment of immersing corn seeds to promote germination and growth of corn was taken as an example, the steps were as follows:
In the present disclosure, the novel crystal form I was prepared with anhydrous ethanol into a 10 mg/ml mother solution, and used immediately during the experiment.
The agents were prepared according to the experimental design. 20 normal plump corn seeds were selected, placed in the agent, and immersed at 26° C. for 24 h. The seeds were washed with water, placed in a culture box and placed in a constant-temperature incubator for germination. The germination was conducted in 2 periods: 14 h of light illumination, at 28° C.; 10 h in the dark, at 25° C., and for 7 d. Each treatment was repeated 3 times. During the whole experiment, 5 ml of water was regularly added with a pipette at 9:00 every day to keep the culture box moist. After 7 days, the germination rate was counted, the shoot length and root length were measured, and the root vigor and shoot vigor were calculated. Germination rate=germinated number of seeds treated on 7th day/total number of treated seeds×100%; Bud vigor index=germination rate of 7th day×seedling bud length of 7th day; Root vigor index=germination rate of 7th day×seedling root length of 7th day.

tobacco seedlings [1] = assay: Promoting growth of tobacco seedlings (leaf spray, leaf area growth rate); type: in vivo; conditions: for Growth-promoting effect (in words): 7 d after treatment; for 7-day leaf area growth rate (%): leaf spray, 7 d
Method: The example of the present disclosure provided use of the novel crystal form I and the novel crystal form II in promoting plant growth, specifically an experiment of promoting growth of tobacco seedlings was taken as an example, the steps were as follows:
In the present disclosure, the novel crystal form I and the novel crystal form II each were prepared with anhydrous ethanol into a 10 mg/ml mother solution, and used immediately during the experiment.
Tobacco seedlings with a seedling age of 7 d were transplanted and planted in a cultivation room, and the seedlings were subjected to recovery for 2 d before testing. After the treatment agent was formulated according to the experimental design, the leaves of the tobacco seedlings were evenly sprayed, and each treatment was repeated 3 times, with 2 plants in each repetition, that is, 6 seedlings in each treatment. […] The RGB AREA_MM parameter (leaf area/mm^2) of the tobacco was recorded with a plant phenotype instrument before and 7 d […], and a growth rate of the leaf area was calculated to evaluate a growth-promoting effect of the drug. The formula for calculating a leaf area growth rate was as follows: Growth rate (%)=(final leaf area−initial leaf area)×100%/initial leaf area

[2] = Stability test of crystal forms in high-temperature environment at 80° C.±2° C.; type: physicochemical
Method: Appropriate amounts of the crystal form I and crystal form II were separately placed in a high-temperature environment at 80° C.±2° C. for stability experiments, and the experimental results were shown in Table 1.

tobacco seedlings [3] = assay: Promoting cold resistance of tobacco (chlorophyll fluorescence after 4° C. cold injury); type: in vivo
Method: The example of the present disclosure provided use of the novel crystal form II in promoting stress resistance of plants, specifically an experiment of promoting cold resistance of tobacco was taken as an example, the steps were as follows:
In the present disclosure, the novel crystal form II was prepared with anhydrous ethanol into a 10 mg/ml mother solution, and used immediately during the experiment.
After the treatment agents were prepared according to Table 6, the leaves of the tobacco seedlings were evenly sprayed in the morning. […] After 1 d of recovery, cold injury (4° C.) treatment was conducted, while other conditions remained the same as those during normal culture. The chlorophyll fluorescence QY-max parameter (theoretical maximum photosynthetic capacity) and Fv/Fm (maximum photon yield of PSII) of tobacco were recorded before drug treatment, after 6 h and 24 h of low-temperature treatment, and after 24 h of recovery at room temperature (25° C.) separately with a plant phenotype instrument.
QY-max represents the theoretical maximum photosynthetic capacity of plants, and the smaller its reduction rate, the better the plant's low-temperature resistance. Fv/Fm-lss represents the maximum photon yield of PSII, similar to QY-max, the smaller its reduction rate, the better the plant's low-temperature resistance. […] Afterwards, each treatment was placed at room temperature (25° C.) for recovery.

[4] = 0.003 ppm, low-temperature (4° C.) treatment for 6 h
[5] = 0.003 ppm, low-temperature (4° C.) treatment for 24 h
[6] = 0.003 ppm, room-temperature (25° C.) recovery for 24 h
[7] = 0.03 ppm, low-temperature (4° C.) treatment for 6 h
[8] = 0.03 ppm, low-temperature (4° C.) treatment for 24 h
[9] = 0.03 ppm, room-temperature (25° C.) recovery for 24 h
[10] = 0.3 ppm, low-temperature (4° C.) treatment for 6 h
[11] = 0.3 ppm, low-temperature (4° C.) treatment for 24 h
[12] = 0.3 ppm, room-temperature (25° C.) recovery for 24 h

CC(C)(O)CC[C@@H](O)[C@](C)(O)C1CC[C@@]2(O)[C@H]3CC(=O)[C@@H]4C[C@@H](O)[C@@H](O)C[C@]4(C)[C@H]3CC[C@]12C (single isomer, unassigned) [Novel crystal form I]
Solubility in ethanol (in words) (Solubility in ethanol): desirable solubility
Solubility in water (in words) (Solubility in water): desirable solubility
Bud vigor index (corn seeds; 0.003 ppm): 7.77 ± 0.36
Root vigor index (corn seeds; 0.003 ppm): 8.80 ± 0.29
Germination rate (%) (corn seeds; 0.003 ppm): 72.12 ± 1.15%
Effect on root and bud vigor indexes versus control CK (in words) (corn seeds; 0.03 ppm): best effect, which was obviously better than that of the control CK
Germination effect on corn compared with the water control (in words) (corn seeds; 0.03 ppm): germination-promoting effect
Bud vigor index (corn seeds; 0.03 ppm): 10.93 ± 0.17
Root vigor index (corn seeds; 0.03 ppm): 10.89 ± 0.24
Germination rate (%) (corn seeds; 0.03 ppm): 77.34 ± 1.99%
Bud vigor index (corn seeds; 0.3 ppm): 9.26 ± 0.24
Root vigor index (corn seeds; 0.3 ppm): 9.77 ± 0.53
Germination rate (%) (corn seeds; 0.3 ppm): 75.38 ± 2.37%
Effect on root and bud vigor indexes (in words) (corn seeds; in vivo): effect of improving the root vigor index and bud vigor index
Growth-promoting effect (in words) (tobacco seedlings [1]; 0.003 ppm): obvious growth-promoting effects
7-day leaf area growth rate (%) (tobacco seedlings [1]; 0.003 ppm): 179.02 ± 0.15%
7-day leaf area growth rate (%) (tobacco seedlings [1]; 0.03 ppm): 166.45 ± 0.18%
7-day leaf area growth rate (%) (tobacco seedlings [1]; 0.3 ppm): 145.98 ± 0.39%
Stability in high-temperature environment (in words) [2]: highly stable in the high-temperature environment, and no crystal form change occurred
Content (%) ([2]; test time 0 d): 99.98%
Content of other substances (%) ([2]; test time 0 d): 0.02%
XRPD ([2]; test time 0 d): Unchanged
Content (%) ([2]; test time 5 d): 99.93%
Content of other substances (%) ([2]; test time 5 d): 0.07%
XRPD ([2]; test time 5 d): Unchanged
Content (%) ([2]; test time 10 d): 99.96%
Content of other substances (%) ([2]; test time 10 d): 0.04%
XRPD ([2]; test time 10 d): Unchanged

CC(C)(O)CC[C@@H](O)[C@](C)(O)C1CC[C@@]2(O)[C@H]3CC(=O)[C@@H]4C[C@@H](O)[C@@H](O)C[C@]4(C)[C@H]3CC[C@]12C (single isomer, unassigned) [Novel crystal form II]
Solubility in ethanol (in words) (Solubility in ethanol): desirable solubility
Solubility in water (in words) (Solubility in water): desirable solubility
Growth-promoting effect (in words) (tobacco seedlings [1]; 0.003 ppm): obvious growth-promoting effects
7-day leaf area growth rate (%) (tobacco seedlings [1]; 0.003 ppm): 169.02 ± 0.26%
7-day leaf area growth rate (%) (tobacco seedlings [1]; 0.03 ppm): 153.44 ± 0.19%
7-day leaf area growth rate (%) (tobacco seedlings [1]; 0.3 ppm): 150.31 ± 0.39%
Stability in high-temperature environment (in words) [2]: highly stable in the high-temperature environment, and no crystal form change occurred
Content (%) ([2]; test time 0 d): 99.87%
Content of other substances (%) ([2]; test time 0 d): 0.13%
XRPD ([2]; test time 0 d): Unchanged
Content (%) ([2]; test time 5 d): 99.84%
Content of other substances (%) ([2]; test time 5 d): 0.16%
XRPD ([2]; test time 5 d): Unchanged
Content (%) ([2]; test time 10 d): 99.87%
Content of other substances (%) ([2]; test time 10 d): 0.13%
XRPD ([2]; test time 10 d): Unchanged
Fv/Fm-lss change rate (%) (tobacco seedlings [3]; [4]): −30.1 ± 0.22%
QY-max change rate (%) (tobacco seedlings [3]; [4]): −10.4 ± 0.13%
Fv/Fm-lss change rate (%) (tobacco seedlings [3]; [5]): −46.1 ± 0.28%
QY-max change rate (%) (tobacco seedlings [3]; [5]): −31.0 ± 0.18%
Fv/Fm-lss change rate (%) (tobacco seedlings [3]; [6]): −16.2 ± 0.27%
QY-max change rate (%) (tobacco seedlings [3]; [6]): −10.0 ± 0.24%
Reduction rate of QY-max and Fv/Fm-lss versus water control (in words) (tobacco seedlings [3]; 0.03 ppm, after 6 h of low-temperature treatment): significantly lower than that of the water control
Recovery effect, comparison of concentrations (in words) (tobacco seedlings [3]; 0.03 ppm, after 24 h of recovery at room temperature): the best
Fv/Fm-lss change rate (%) (tobacco seedlings [3]; [7]): −14.3 ± 0.13%
QY-max change rate (%) (tobacco seedlings [3]; [7]): −3.6 ± 0.33%
Fv/Fm-lss change rate (%) (tobacco seedlings [3]; [8]): −33.4 ± 0.12%
QY-max change rate (%) (tobacco seedlings [3]; [8]): −27.6 ± 0.16%
Fv/Fm-lss change rate (%) (tobacco seedlings [3]; [9]): 0.3 ± 0.16%
QY-max change rate (%) (tobacco seedlings [3]; [9]): −0.6 ± 0.18%
Fv/Fm-lss change rate (%) (tobacco seedlings [3]; [10]): −26.4 ± 0.27%
QY-max change rate (%) (tobacco seedlings [3]; [10]): −7.9 ± 0.25%
Fv/Fm-lss change rate (%) (tobacco seedlings [3]; [11]): −44.4 ± 0.25%
QY-max change rate (%) (tobacco seedlings [3]; [11]): −30.0 ± 0.27%
Fv/Fm-lss change rate (%) (tobacco seedlings [3]; [12]): −4.5 ± 0.21%
QY-max change rate (%) (tobacco seedlings [3]; [12]): −5.2 ± 0.13%
Recovery effect versus clean water control (in words) (tobacco seedlings [3]; each concentration, after 24 h of recovery at room temperature): better than that of the clean water control
Low-temperature resistance, summary (in words) (tobacco seedlings [3]; in vivo): bioactivity of anti-low temperature
